In patent US20240299483A1, “TARGETS AND BIOMARKERS FOR TUMOR MICROENVIRONMENTS” (The Trustees of Indiana University, priority 2023, published 2024):

Legend:
[1] = system: CD4^+ T cells; test: T cell proliferation assay (CFSE-labeled CD4+ T cells co-cultured with pre-treated Ly6G+ cells); format: cell-based, mice; conditions: Ly6G+ cells pre-treated 10 μM, 1 hour; co-culture 4 days; DMSO control
Description: (§1) Isolation of Bone Marrow Lymphocyte Antigen 6 Member G—Positive (Ly6G^+) Cell Ly6G^+ cells were isolated by magnetic bead sorting. For CPI-613 (also known as Devimistat; a pyruvate dehydrogenase inhibitor) treatment, freshly isolated Ly6G^+ cells were pre-treated with DMSO or 10 μM CPI-613 at 37° C. for 1 hour, and then co-cultured with Cluster of Differentiation 4 Protein-positive […] (CD4^+ T cells) or co-injected with B16 melanoma cells for further analysis.
T cell Proliferation Assay CD4^+ T cells were isolated from the spleen and labeled with carboxyfluorescein succinimidyl ester (CFSE) as previously described. CFSE-labeled CD4^+ T cells were co-cultured with Ly6G^+ cells in 96-well plates pre-coated with anti-CD3 mAb (2 μg/mL) (145-2C11, cat #553057) and anti-CD28 mAb (5 μg/mL) (37.51, cat #553295) (acquired from BD Biosciences) at 37° C., 5% CO2, for 4 days. The ratio of Ly6G^+ cells to CD4^+ T cells was 1:5. Proliferation of CD4^+ T cells was evaluated as CFSE dilution by flow cytometry analysis.

[2] = system: B16 melanoma cells; test: In vitro co-culture of Ly6G+ cells and B16 melanoma cells; format: cell-based, murine; conditions: Ly6G+ cells pre-treated 10 μM; co-culture 72 hours
Description: (§2) In Vitro Co-Culture of Ly6G^+ and Tumor Cells B16 melanoma or LLC cells were harvested, resuspended, and adjusted to density at 5×10^4 cells/mL. Isolated Ly6G^+ cells with or without 10 μM CPI-613 pre-treatment were prepared at the cell density of 5×10^6 cells/mL. One hundred microliter of Ly6G^+ cells and 100 μL of B16 melanoma/LLC cells were mixed, and seeded into a well of 96-well plates in DMEM supplemented with 10% FBS. Seventy-two hours later, unattached Ly6G^+ cells were removed by washing with PBS, and the number of attached B16 melanoma/LLC cells was counted. Morphologically, Ly6G^+ cells are much smaller than B16 melanoma/LLC cells for exclusion.
(§3) Small Interfering RNA Transfection Before transfection, Ly6G^+ cells were seeded into 96-well plates at a density of 1×10^6 cells/well. For small interfering RNA (siRNA)-mediated gene knockdown, 50 nmol/L of PDH siRNA (containing a mixture of three independent siRNAs targeting different regions of PDH) or control siRNA was transfected into Ly6G^+ cells with DharmaFECT Transfection Reagent I, chemical formulation for transfection, (acquired from Dharmacon) according to the manufacturer's protocol. After 24 hours of transfection, cells were harvested for further analysis.

[3] = system: Ly6G^+ cells; test: Reactive oxygen species (ROS) measurement in Ly6G+ cells by flow cytometry; format: cell-based, mice; conditions: CPI-613 treatment; versus Lal+/+ Ly6G+ cells
Description: as §1
Reactive Oxygen Species (ROS) Measurement The ROS level in Ly6G^+ cells was measured by flow cytometry as previously described. Ly6G^+ cells from Lal^+/+ and Lal^−/− mice with or without CPI-613 pre-treatment were collected and stained with APC eFluor 780-conjugated anti-Ly6G antibody, FITC-conjugated anti-CD11b antibody and 2 μmol/L 2′, 7′-dichlorofluorescein diacetate (acquired from Invitrogen, Carlsbad, CA) at 37° C. for 30 minutes. After PBS washing, the ROS level in Ly6G^+ cells was analyzed using an LSRII machine.
Small Interfering RNA Transfection Before transfection, Ly6G^+ cells were seeded into 96-well plates at a density of 1×10^6 cells/well. […]

[4] = system: Lewis lung carcinoma (LLC) cells; test: In vitro co-culture of Ly6G+ cells and LLC cells; format: cell-based, murine; conditions: Ly6G+ cells pre-treated 10 μM; co-culture 72 hours
Description: as §2, §3

[5] = system: CD11b^+Ly6G^+ cells; test: CD11b+Ly6G+ population in bone marrow after CPI-613 injection, flow cytometry; format: in vivo; conditions: Lal−/− mice, 5 mg/kg on days 0, 2, 4, 7; measured day 8; DMSO control
Description: Mice received 5 mg/kg CPI-613 (PDH inhibitor) on days 0, 2, 4, and 7. On day 8, the CD11b^+Ly6G^+ population in the bone marrow was determined by flow cytometry. DMSO (dimethyl sulfoxide) was used as a control.
(§4) Flow Cytometry Analysis For analyses of percentages of CD11b^+Ly6G^+ (integrin alpha M-positive/Ly6G positive) and Ly6G^+Ly6C^+ (Ly6G positive/lymphocyte antigen 6 C1-positive) cells, single cells harvested from the bone marrow of Lal^+/+ and Lal^−/− mice were stained with APC eFluor 780-conjugated, dye, anti-Ly6G antibody (1A8-Ly6g, cat #47-9668-82), FITC (fluorescein isothiocyanate)-conjugated anti-CD11b antibody (M1/70, cat #11-0112-82), and PE (phycocrythrin)-conjugated anti-Ly6C antibody (HK1.4, cat #12-5932-82) at 4° C. for 15 minutes. All antibodies were acquired from eBioscience, San Diego, CA. For analysis of PD-L1 expression in Ly6G^+ cells, cells were stained with APC eFluor 780-conjugated anti-Ly6G antibody, PE-conjugated anti-CD11c (integrin alpha X) antibody (N418, cat #12-0114-82) (acquired from eBioscience), and PE-Cy7 (cyanine 7)-conjugated anti-PD-L1 antibody (10F.9G2, cat #124314) (acquired from Biolegend) at 4° C. for 15 minutes. Cells were washed with PBS, then were ready for flow cytometry analysis.

[6] = system: PD-L1; test: PD-L1 expression in Ly6G+ cells after in vivo CPI-613 treatment, flow cytometry; design: species or system mice; conditions: 5 mg/kg on days 0, 2, 4, 7; day 8; PD-L1+ cells in Ly6G+CD11c+ cells
Description: FIG. 3J measures PD-L1^+ cells of Ly6G^+ CD11c^+ cells isolated from Lal^+/+ and Lal^−/− mice. Mice received 5 mg/kg CPI-613 on days 0, 2, 4, and 7. On day 8, the percentage of PD-L1^+ cells in Ly6G^+ CD11c^+ cells was measured by flow cytometry analysis.
as §4

[7] = system: B16 melanoma cells; test: Subcutaneous co-injection of pre-treated Ly6G+ cells with B16 melanoma cells, tumor growth; format: in vivo; conditions: Ly6G+ cells pre-treated 10 μM 1 hour, co-injected with B16 melanoma cells into Lal+/+ recipient mice; tumor size at 10 days
Description: Subcutaneous Injection of Tumor Cells into Lal^+/+ Mice To study the effect of Ly6G^+ cells on tumor growth, isolated 1×10^6 Ly6G^+ cells from Lal^+/+ or Lal^−/− mice were pre-treated with DMSO or 10 μM CPI-613 for 1 hour, mixed with 2×10^5 B16 melanoma cells, and the cell mixture was injected subcutaneously at the flank region of Lal^+/+ recipient mice. The tumor growth was monitored twice a weck. The tumor volume (mm^3) was estimated by measuring the maximal length (L) and width (W) of a tumor and calculated using the formula: (length×width^2)/2. For tumor-bearing myeloid-derived suppressor cells (MDSCs) experiments, Lal^+/+ or Lal^−/− mice were injected with 1×10^6 B16 melanoma cells at flank sites on two sides. Fourteen days later, the mice were sacrificed. Tumor tissues were harvested, digested for single cell preparation, and stained for flow cytometry analysis of the CD11b^+Ly6G^+ cells.

[8] = system: lysosomal acid lipase (LAL); test: Human leucocytes incubated with LAL inhibitor, MDSC subsets by flow cytometry; format: cell-based; conditions: leucocytes from healthy subjects, 10 μM, 24 hours
Description: Human leucocytes from healthy individuals were incubated with 10 μM Lalistat2, an LAL inhibitor (L) or DMSO (S) for 24 hours; control group (C) were not treated. After 24 hours, cells were analyzed by flow cytometry.
Human Blood Samples The blood donor characteristics of the human blood samples of normal subjects and non-small-cell lung cancer (NSCLC, at stage III-IV) patients is described in TABLE 8. NSCLC patients were selected by screening with Programmed death-ligand 1 (PD-L1) Tumor Proportion Score (TPS)≥10%. Both normal subjects and NSCLC patients include male and female, White and African American. To inhibit lysosomal acid lipase (LAL) activity, human blood cells from healthy participants had the red blood cells (RBCs) removed with lysis buffer acquired from Biolegend (San Diego, CA); washed with phosphate buffered saline (PBS) by centrifugation at 240×g for 5 minutes at room temperature; and then incubated with 10 μM LAL inhibitor Lalistat2, acquired from Cayman, Ann Arbor, MI) for 24 hours. As a control, human blood cells were incubated with dimethyl sulfoxide (DMSO).
For flow cytometry analysis of human blood samples, human blood cells had the RBCs removed, washed with PBS, and stained with APC-eFluor 780-conjugated anti-CD11b antibody (ICRF44, cat #47-0118-42), FITC-conjugated anti-CD13 (aminopeptidase N) antibody (WM15, cat #11-0138-42), PE-conjugated anti-CD14 antibody (61D3, cat #12-0149-42), APC-conjugated anti-CD15 (Lewis X) antibody (MMA, cat #17-0158-42), PE-conjugated anti-CD33 antibody (HIM3-4, cat #12-0339-42), PE-Cy7-conjugated anti-HLA-DR (major histocompatibility complex, class II) antibody (L243, cat #25-9952-42) (all acquired from eBioscience) at 4° C. for 15 minutes. Cells were then washed with PBS, fixed with 1% paraformaldehyde, and prepared for flow cytometry analysis. To analyze LAL levels, cells were further fixed and permeabilized using BD Cytofix/Cytoperm Fixation/Permeabilization Kit, cell fixation and permeabilization kit, and incubated with non-fluorescence conjugated anti-LAL antibody at 4° C. overnight. […]

## O=C(O)CCCCC(CCSCc1ccccc1)SCc1ccccc1 (stereo not shown) [CPI-613]
[1]
  Lal−/− Ly6G+ cells' suppressive activity on T cell proliferation: reversed
[2]
  capability of Lal−/− Ly6G+ cells in promoting tumor cell proliferation, B16 melanoma: reduced capabilities
[3]
  overproduction of ROS in Lal−/− CD11b+Ly6G+ cells: significantly reversed
[4]
  capability of Lal−/− Ly6G+ cells in promoting tumor cell proliferation, LLC: reduced capabilities
[5]
  Lal−/− CD11b+Ly6G+ cells (percentage in bone marrow): reduced
[6]
  PD-L1 expression in Lal−/− Ly6G+ cells: effectively reduced
[7]
  capability of Lal−/− Ly6G+ cells in stimulating tumor growth: reduced capabilities

## O=C(Oc1nsnc1N1CCCCC1)N1CCCCC1 [Lalistat2]
[8]
  induction of CD11b+CD15+HLA-DR− MDSC subset: did not reach statistical significance
  percentage of CD11b+CD13+HLA-DR− MDSC subset: increased
  percentage of CD11b+CD14+HLA-DR− MDSC subset: increased
